Assay results: EP1117659B1, “SUBSTITUTED 3-CYANOQUINOLINES AS PROTEIN TYROSINE KINASES INHIBITORS” (Wyeth Holdings Corporation, priority 1998, dated 2000)
pIC50: −log10 of the molar value. “And” between values parts separate entries of the source, which are not always exact repeats. Identical values can stand only once. Counter-ions that a name gives are not always drawn. Like-named read-outs stand apart in the source and are kept apart here.

Assays:
Format in all cases: biochemical
[1] = target: T1, epidermal growth factor receptor kinase (EGF-R Kinase, recombinant enzyme; His-tagged cytoplasmic domain of EGFR) (Homo sapiens, UniProt P00533); experiment: Inhibition of Epidermal Growth Factor Receptor Kinase (EGF-R) using recombinant enzyme, RR-SRC peptide phosphorylation, 33P-ATP; conditions: for inhibition at 0.5 µM: read-out: %Inh @ 0.5 µM; for pIC50: recombinant enzyme, 90 min at room temperature
T1 construct: EGFR cDNA encoding amino acids 645 - 1186 preceded by Met-Ala-(His)6; Met-Ala-(His)6 (N); made in house; host or cells: Sf9 insect cells, recombinant baculovirus vHcEGFR52
Protocol: Representative test compounds were evaluated for their ability to inhibit the phosphorylation of the tyrosine residue of a peptide substrate catalyzed by the enzyme epidermal growth factor receptor kinase. The peptide substrate (RR-SRC) has the sequence arg-arg-leu-ile-glu-asp-ala-glu-tyr-ala-ala-arg-gly. The enzyme used in this test procedure is the His-tagged cytoplasmic domain of EGFR. A recombinant baculovirus (vHcEGFR52) was constructed containing the EGFR cDNA encoding amino acids 645 - 1186 preceded by Met-Ala-(His)6. Sf9 cells in 100 mm plates were infected at an moi of 10 pfu/cell and cells were harvested 48 h post infection. A cytoplasmic extract was prepared using 1% Triton X-100 and applied to Ni-NTA column. After washing the column with 20 mM imidazole, HcEGFR was eluted with 250 mM imidazole (in 50 mM Na2HPO4, pH 8.0, 300 mM NaCl). Fractions collected were dialyzed against 10 mM HEPES, pH 7.0, 50 mM NaCl, 10% glycerol, lug/mL antipain and leupeptin and 0.1 mM Pefabloc SC. The protein was frozen in dry ice/methanol and stored -70°C.
Test compounds were made into 10 mg/mL stock solutions in 100% dimethylsulfoxide (DMSO). Prior to experiment, stock solutions were diluted to 500 uM with 100% DMSO and then serially diluted to the desired concentration with HEPES buffer (30 mM HEPES pH 7.4).
For the enzyme reaction, 10 uL of each inhibitor (at various concentrations) were added to each well of a 96-well plate. To this was added 3 uL of enzyme (1:10 dilution in 10mM HEPES, pH 7.4 for final cone. of 1:120). This was allowed to sit for 10 min on ice and was followed by the addition of 5 ul peptide (80 uM final cone.), 10ul of 4X Buffer (Table A), 0.25 uL ^33P-ATP and 12 uL H2O. The reaction was allowed to run for 90 min at room temperature and was followed by spotting the entire volume on to precut P81 filter papers. The filter discs were washed 2X with 0.5% phosphoric acid and radioactivity was measured using a liquid scintillation counter.
The inhibition data for representative compounds of the invention are shown below in TABLE 1. […] The % inhibition of the test compound was determined for at least three different concentrations and the IC50 value was evaluated from the dose response curve. […] CPM(control) is in units of counts per minute and was a number expressing the amount of radiolabled ATP (γ-^33P) incorporated into the RR-SRC peptide substrate by the enzyme after 90 minutes at room temperature in the absence of test compound as measured by liquid scintillation counting. The CPM values were corrected for the background counts produced by ATP in the absence of the enzymatic reaction. […]

[2] = target: T2, Kinase insert Domain containing Receptor (KDR: the catalytic domain of the VEGF receptor) (Homo sapiens, UniProt P35968); experiment: Inhibition of Kinase insert Domain containing Receptor (KDR), radioactive phosphorylation of Glu:Tyr copolymer; conditions: IC50, substrate phosphorylation
T2 construct: KDR: the catalytic domain of the VEGF receptor
Protocol: In this standard pharmacological test procedure, KDR protein is mixed, in the presence or absence of a inhibitor compound, with a substrate peptide to be phosphorylated (a copolymer of glutamic acid and tyrosine, E:Y :: 4:1) and other cofactors such as Mg^++ and sodium vanadate (a protein tyrosine phosphatase inhibitor) in an appropriate buffer to maintain pH (7.2). ATP and a radioactive tracer (either P^32- or P^33- labeled ATP) is then add to initiate phosphorylation. After incubation, the radioactive phosphate associated with the acid-insoluble fraction of the assay mixture is then quantified as reflection of substrate phosphorylation. […] Multiple entries for a given compound indication it was tested multiple times.

[3] = target: Recombinant human MEK 1 (MAPKK) / recombinant human ERK2 (MAPK) (Mek-Erk) (Homo sapiens, UniProt P28482+Q02750); experiment: Mitogen Activated Protein Kinase (MAPK) assay, two component coupled Mek-Erk test; conditions: for pIC50: read-out: Mek-Erk
[4] = target: Epithelial Cell Kinase (ECK) (Homo sapiens, UniProt P29317); experiment: Inhibition of Epithelial Cell Kinase (ECK), immobilized biotinylated peptide, HRP anti-phosphotyrosine readout; conditions: IC50, substrate phosphorylation
Protocol: In this standard pharmacological test procedure, a biotinylated peptide substrate is first immobilized on neutravidin-coated microtiter plates. The test drug, the Epithelial Cell Kinase (ECK), Mg^++, sodium vanadate (a protein tyrosine phosphatase inhibitor), and an appropriate buffer to maintain pH (7.2) are then added to the immobilized substrate-containing microtiter wells. ATP is then added to initiate phosphorylation. After incubation, the assay plates are washed with a suitable buffer leaving behind phosphorylated peptide which is exposed to horse radish peroxidase (HRP)-conjugated anti-phosphotyrosine monoclonal antibody. The antibody-treated plates are washed again and the HRP activity in individual wells is quantified as a reflection of degree of substrate phosphorylation. […] Multiple entries for a given compound indication it was tested multiple times.

Sequence of Epithelial Cell Kinase (ECK) (P29317 24-976, species assumed): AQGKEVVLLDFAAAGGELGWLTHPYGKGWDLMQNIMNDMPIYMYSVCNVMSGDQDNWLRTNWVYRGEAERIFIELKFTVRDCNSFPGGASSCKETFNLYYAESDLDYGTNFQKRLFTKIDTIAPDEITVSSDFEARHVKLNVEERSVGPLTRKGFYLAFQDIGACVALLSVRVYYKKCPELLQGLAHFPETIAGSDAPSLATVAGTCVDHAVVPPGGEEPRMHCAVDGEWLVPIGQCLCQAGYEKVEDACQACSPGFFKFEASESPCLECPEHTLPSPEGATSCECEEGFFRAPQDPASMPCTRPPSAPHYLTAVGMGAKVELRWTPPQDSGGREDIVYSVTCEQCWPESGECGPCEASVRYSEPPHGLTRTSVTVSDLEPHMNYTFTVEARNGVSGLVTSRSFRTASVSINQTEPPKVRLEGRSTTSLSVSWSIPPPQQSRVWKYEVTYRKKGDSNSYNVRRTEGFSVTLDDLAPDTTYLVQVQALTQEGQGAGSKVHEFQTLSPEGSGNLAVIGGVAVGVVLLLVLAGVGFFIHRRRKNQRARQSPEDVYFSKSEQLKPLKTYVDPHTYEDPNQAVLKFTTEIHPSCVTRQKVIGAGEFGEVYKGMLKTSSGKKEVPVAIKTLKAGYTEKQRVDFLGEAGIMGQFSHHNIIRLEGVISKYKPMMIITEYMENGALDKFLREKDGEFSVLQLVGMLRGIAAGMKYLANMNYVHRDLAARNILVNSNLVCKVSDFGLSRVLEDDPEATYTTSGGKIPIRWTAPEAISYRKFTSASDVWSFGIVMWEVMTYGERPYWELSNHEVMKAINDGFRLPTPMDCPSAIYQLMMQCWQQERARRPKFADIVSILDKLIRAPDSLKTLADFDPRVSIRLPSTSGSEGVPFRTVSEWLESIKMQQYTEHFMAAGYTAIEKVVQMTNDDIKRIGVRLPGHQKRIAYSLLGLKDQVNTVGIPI
T2 sequence (P35968 834-1162 limits assumed): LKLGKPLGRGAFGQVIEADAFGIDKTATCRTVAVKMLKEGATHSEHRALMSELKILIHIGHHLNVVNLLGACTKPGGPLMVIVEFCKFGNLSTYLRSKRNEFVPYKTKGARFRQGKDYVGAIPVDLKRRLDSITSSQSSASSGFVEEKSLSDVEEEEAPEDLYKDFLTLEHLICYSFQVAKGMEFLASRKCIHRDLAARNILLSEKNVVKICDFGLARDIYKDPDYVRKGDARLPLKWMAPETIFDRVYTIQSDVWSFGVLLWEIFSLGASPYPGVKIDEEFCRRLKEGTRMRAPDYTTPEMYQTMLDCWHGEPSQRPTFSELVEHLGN
Sequence of Recombinant human MEK 1 (MAPKK) / recombinant human ERK2 (MAPK) (Mek-Erk) (P28482 2-360): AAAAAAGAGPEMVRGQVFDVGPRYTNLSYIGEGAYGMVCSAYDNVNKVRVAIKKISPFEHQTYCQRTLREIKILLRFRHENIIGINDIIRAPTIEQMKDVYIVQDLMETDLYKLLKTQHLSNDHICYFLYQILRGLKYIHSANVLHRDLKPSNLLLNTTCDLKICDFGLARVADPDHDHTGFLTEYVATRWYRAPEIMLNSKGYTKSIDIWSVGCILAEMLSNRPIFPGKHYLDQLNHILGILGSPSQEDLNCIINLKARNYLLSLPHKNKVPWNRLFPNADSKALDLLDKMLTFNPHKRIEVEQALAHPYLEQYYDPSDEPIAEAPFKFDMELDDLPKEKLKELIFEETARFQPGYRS
Sequence of Recombinant human MEK 1 (MAPKK) / recombinant human ERK2 (MAPK) (Mek-Erk) (Q02750 whole entry): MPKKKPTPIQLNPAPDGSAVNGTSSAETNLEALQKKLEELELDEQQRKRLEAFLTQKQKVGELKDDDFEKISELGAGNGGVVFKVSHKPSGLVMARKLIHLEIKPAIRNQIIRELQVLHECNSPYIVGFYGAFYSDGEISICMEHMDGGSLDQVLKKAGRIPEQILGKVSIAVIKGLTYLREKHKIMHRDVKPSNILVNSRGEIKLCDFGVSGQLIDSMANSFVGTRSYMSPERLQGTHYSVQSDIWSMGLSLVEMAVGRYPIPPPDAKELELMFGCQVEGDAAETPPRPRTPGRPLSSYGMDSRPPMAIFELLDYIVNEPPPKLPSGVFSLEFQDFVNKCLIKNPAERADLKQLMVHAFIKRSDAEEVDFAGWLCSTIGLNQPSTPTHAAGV

| pIC50 [2] | pIC50 [4] | pIC50 [3] | Compound | pIC50 [1] | further results |
| --- | --- | --- | --- | --- | --- |
|  |  |  | 4-(2,3-Dihydro-1H-indol-6-ylamino)-6,7-diethoxy-quinoline-3-carbonitrile [Example 96] |  | %Inh @ 0.5 µM ([1]; 0.5 µM concentration of test compound): 6% |
| 4.28 and < 5.58 | < 5.58 |  | CCOc1cc2ncc(C#N)c(Nc3ccc4c(c3)OCO4)c2cc1OCC [Example 98, 4-(Benzo[1,3]dioxol-5-ylamino)-6,7-diethoxy-quinoline-3-carbonitrile] |  |  |
| 5.06 |  |  | COc1cc2ncc(C#N)c(Nc3ccc4c(c3)NCC4)c2cc1OC [Example 113, 4-(2,3-Dihydro-1H-indol-6-ylamino)-6,7-methoxy-quinoline-3-carbonitrile] |  |  |
| 5.81 and 5.65 | 4.65 and < 5.65 |  | COc1cc2c(Nc3ccc4c(c3)NCC4)c(C#N)cnc2cc1OCCCc1ccncc1 [Example 119, 4-(2,3-Dihydro-1H-indol-6-ylamino)-6-methoxy-7-(3-pyridin-4-yl-propoxy)-quinoline-3-carbonitrile] |  |  |
|  |  | 4.46 | N#Cc1cnc2cc3c(cc2c1Nc1ccc2cn[nH]c2c1)OCCO3 [Example 125, 9-(1H-Indazol-6-ylamino)-2,3-dihydro[1,4]dioxino[2,3-g]quinoline-8-carbonitrile] |  |  |
| < 4.10 | < 4.27 | < 4.00 and 4.00 | COc1cc2c(Nc3ccc4cn[nH]c4c3)c(C#N)cnc2c(OC)c1OC [Example 128, 4-(1H-Indazol-6-ylamino)-6,7,8-trimethoxy-quinoline-3-carbonitrile] |  |  |
| 4.54 and < 5.54 | < 5.54 |  | COc1cc2ncc(C#N)c(Nc3ccc4[nH]ncc4c3)c2cc1OC [Example 137, 4-(1H-Indazol-5-ylamino)-6,7-dimethoxy-quinoline-3-carbonitrile] | 6.82 |  |
| < 4.06 | < 4.54 | < 4.00 | COc1ccc(OC)c2c(Nc3ccc4cn[nH]c4c3)c(C#N)cnc12 [Example 138, 4-(1H-Indazol-6-ylamino)-5,8-dimethoxy-quinoline-3-carbonitrile] |  |  |
| 4.32 and < 5.50 | < 4.50 | 5.70 | COc1ccc2c(Nc3ccc4cn[nH]c4c3)c(C#N)cnc2c1 [Example 143, 4-(1H-Indazol-6-ylamino)-7-methoxy-quinoline-3-carbonitrile] |  |  |
|  |  | 5.52 | COc1ccc2c(Nc3ccc4[nH]ccc4c3)c(C#N)cnc2c1 [Example 146, 4-(1H -Indol-5-ylamino)-7-methoxy-quinoline-3-carbonitrile] |  |  |
| 6.24 | < 4.54 |  | COc1cc2ncc(C#N)c(Nc3ccc4[nH]ccc4c3)c2cc1OC [Example 150, 4-(1H -Indol-5-ylamino)-6,7-Dimethoxy-quinoline-3-carbonitrile] | 8.82 and 8.40 |  |
| 4.89 and < 5.59 | 6.11 |  | COc1cc2ncc(C#N)c(Nc3ccc(Cl)c4ccccc34)c2cc1OC [Example 154, 4-(4-Chloro-naphthalen-1-ylamino)-6,7 -Dimethoxy-quinoline-3-carbonitrile] |  |  |
|  |  | 5.40 | COc1cc2ncc(C#N)c(Nc3cccc4c3CCCC4)c2cc1OC [Example 155, 6,7-Dimethoxy-4-(5,6,7,8,- tetrahydro-naphthalen-1-ylamino)-quinoline-3-carbonitrile] |  |  |
| < 5.60 | 6.12 |  | COc1cc2c(Nc3ccc4cn[nH]c4c3)c(C#N)cnc2cc1OCCCl [Example 166, 7-(2-Chloroethoxy)-4-(1H-indazol-6-ylamino)-6-methoxyquinoline-3-carbonitrile] |  |  |
|  |  |  | CCOc1cc2ncc(C#N)c(Nc3ccc(Sc4nccn4C)c(Cl)c3)c2cc1OCC [Example 172, 4-[3-Chloro-4-(1-methyl-2-imidazolylthio)phenylamino]-6,7-diethoxy-3-quinolinecarbonitrile] | 7.05 |  |
|  |  |  | COc1cc2ncc(C#N)c(Nc3ccc(Sc4nccn4C)c(Cl)c3)c2cc1OC [Example 173, 4-[3-Chloro-4-(1-methyl-2-imidazolylthio)phenylamino]-6,7-dimethoxy-3-quinolinecarbonitrile] | 6.30 |  |
|  |  |  | C=CC(=O)Nc1ccc2ncc(C#N)c(Nc3ccc(Sc4nccn4C)c(Cl)c3)c2c1 [Example 176, N-{4-[3-Chloro-4-(1-methyl-1H-imidazol-2-ylsulfanyl)-phenylamino]-3-cyano-quinolin-6-yl}-acrylamide] | 8.00 |  |

| Compound | pIC50 [2] | pIC50 [4] | pIC50 [3] | pIC50 [1] | further results |
| --- | --- | --- | --- | --- | --- |
| CCOc1cc2ncc(C#N)c(Nc3ccc4ncsc4c3)c2cc1OCC [Example 97, 4-(Benzothiazol-6-ylamino)-6,7-diethoxy-quinoline-3-carbonitrile HCl Salt] | < 5.59 | < 5.59 |  | < 5.00 | inhibition at 0.5 µM [1]: 7%; IC50 ([3]; read-out: Mek-Erk µM): 55 µM |
| COc1cc2ncc(C#N)c(Nc3cccc4[nH]ccc34)c2cc1OC [Example 136, 4-(1H-Indol-4-ylamino)-6,7-dimethoxy-quinoline-3-carbonitrile] | < 4.54 | 6.06 |  | < 6.00 | inhibition at 0.5 µM [1]: 33% |
| COc1cc2ncc(C#N)c(Nc3ccc4cn[nH]c4c3)c2cc1OCCCN1CCOCC1 [Example 139, 4-(1H-Indazol-6-ylamino)-7-methoxy-6-(3-morpholin-4-yl-propoxy)-quinoline-3-carbonitrile hydrochloride] | 4.66 and < 5.66 | < 5.66 |  |  | IC50 ([3]; read-out: Mek-Erk µM): 15 µM |
| COc1cc2ncc(C#N)c(Nc3ccc4nn[nH]c4c3)c2cc1OCCCN1CCOCC1 [Example 140, 4-(3H-Benzotriazol-5-ylamino)-7-methoxy-6-(3-morpholin-4-yl-propoxy)-quinoline-3-carbonitrile hydrochloride] |  | 5.66 |  |  | IC50 ([3]; read-out: Mek-Erk µM, hydrochloride): 22 µM and 15 µM |
| COc1cc2ncc(C#N)c(Nc3ccc4[nH]cnc4c3)c2cc1OC [Example 151, 4-(1H -Benzoimidazol-5-ylamino)-6,7-dimethoxy-quinoline-3-carbonitrile] | 4.54 | < 4.54 |  | < 6.00 | inhibition at 0.5 µM [1]: 34% |
| COc1cc2ncc(C#N)c(Nc3ccc4[nH]c(C)nc4c3)c2cc1OC [Example 152, 6,7-Dimethoxy-4-(2-methyl-1H -benzoimidazol-5-ylamino)-quinoline-3-carbonitrile] |  | < 4.56 | < 4.00 | < 6.00 | inhibition at 0.5 µM [1]: 24% |
| COc1cc2c(Nc3ccc4cn[nH]c4c3)c(C#N)cnc2cc1OCCN(C)C [Example 167, 7-(2-Dimethylaminoethoxy)-4-(1H-indazol-6-ylamino)-6-methoxyquinoline-3-carbonitrile] |  |  | 5.10 | < 6.00 | inhibition at 0.5 µM [1]: 0% |
| COc1cc2c(Nc3ccc4cn[nH]c4c3)c(C#N)cnc2cc1OCCN1CCOCC1 [Example 168, 4-(1H-Indazol-6-ylamino)-6-methoxy-7-(2-morpholin-4-yl-ethoxy)quinoline-3-carbonitrile] | 5.35 | < 4.65 |  | < 6.00 | inhibition at 0.5 µM [1]: 1% |
